# Test: Organ distribution of injected radioactivity in rats after I.V. injection
# Assay type: in vivo, Ratten (weiblich, Wistar, spf)
# Settings: Ratte
# Method: Es werden je 3 Ratten (weiblich, Wistar, spf) zu sieben verschiedenen Zeitpunkten (2′, 10′, 20′, 40′, 1h, 6h, 15h) gemessen. Das Gewicht der Tiere lag zwischen 113 und 144 g. Die Fütterung erfolgte ad libitum. Die I.V. injizierten Dosen variierten von 184 bis 355 µCi in jeweils 0,2 ml.
compound,measurement,setting,value
"CCOC(=O)c1ncn2c1CN(C)C(=O)c1c([123I])cccc1-2 [Aethyl-7-¹²³Jod-5,6-dihydro-5-methyl-6-oxo-4H-imidazo[1,5-a][1,4]benzodiazepin-3-carboxylat]",Prozent der injizierten Aktivität in den entsprechend Organen,"Blase, 2′","0,03 Prozent der injizierten Aktivität"
same,Prozent der injizierten Aktivität in den entsprechend Organen,"Blase, 10′","0,06 Prozent der injizierten Aktivität"
same,Prozent der injizierten Aktivität in den entsprechend Organen,"Blase, 20′","0,03 Prozent der injizierten Aktivität"
same,Prozent der injizierten Aktivität in den entsprechend Organen,"Blase, 40′","0,01 Prozent der injizierten Aktivität"
same,Prozent der injizierten Aktivität in den entsprechend Organen,"Blase, 60′","0,03 Prozent der injizierten Aktivität"
same,Prozent der injizierten Aktivität in den entsprechend Organen,"Blase, 6h","0,09 Prozent der injizierten Aktivität"
same,Prozent der injizierten Aktivität in den entsprechend Organen,"Blase, 15h","0,0022 Prozent der injizierten Aktivität"
same,Prozent der injizierten Aktivität in den entsprechend Organen,"Darm, 2′","9,28 Prozent der injizierten Aktivität"
same,Prozent der injizierten Aktivität in den entsprechend Organen,"Darm, 10′","12,70 Prozent der injizierten Aktivität"
same,Prozent der injizierten Aktivität in den entsprechend Organen,"Darm, 20′","22,53 Prozent der injizierten Aktivität"
same,Prozent der injizierten Aktivität in den entsprechend Organen,"Darm, 40′","25,54 Prozent der injizierten Aktivität"
same,Prozent der injizierten Aktivität in den entsprechend Organen,"Darm, 60′","28,48 Prozent der injizierten Aktivität"
same,Prozent der injizierten Aktivität in den entsprechend Organen,"Darm, 6h","19,50 Prozent der injizierten Aktivität"
same,Prozent der injizierten Aktivität in den entsprechend Organen,"Darm, 15h","1,012 Prozent der injizierten Aktivität"
same,Prozent der injizierten Aktivität in den entsprechend Organen,"Femur, 2′","0,39 Prozent der injizierten Aktivität"
same,Prozent der injizierten Aktivität in den entsprechend Organen,"Femur, 10′","0,25 Prozent der injizierten Aktivität"
same,Prozent der injizierten Aktivität in den entsprechend Organen,"Femur, 20′","0,14 Prozent der injizierten Aktivität"
same,Prozent der injizierten Aktivität in den entsprechend Organen,"Femur, 40′","0,06 Prozent der injizierten Aktivität"
same,Prozent der injizierten Aktivität in den entsprechend Organen,"Femur, 60′","0,04 Prozent der injizierten Aktivität"
same,Prozent der injizierten Aktivität in den entsprechend Organen,"Femur, 6h","0,01 Prozent der injizierten Aktivität"
same,Prozent der injizierten Aktivität in den entsprechend Organen,"Femur, 15h","0,004 Prozent der injizierten Aktivität"
same,Prozent der injizierten Aktivität in den entsprechend Organen,"Herz, 2′","0,58 Prozent der injizierten Aktivität"
same,Prozent der injizierten Aktivität in den entsprechend Organen,"Herz, 10′","0,37 Prozent der injizierten Aktivität"
same,Prozent der injizierten Aktivität in den entsprechend Organen,"Herz, 20′","0,17 Prozent der injizierten Aktivität"
same,Prozent der injizierten Aktivität in den entsprechend Organen,"Herz, 40′","0,06 Prozent der injizierten Aktivität"
same,Prozent der injizierten Aktivität in den entsprechend Organen,"Herz, 60′","0,03 Prozent der injizierten Aktivität"
same,Prozent der injizierten Aktivität in den entsprechend Organen,"Herz, 6h","0,009 Prozent der injizierten Aktivität"
same,Prozent der injizierten Aktivität in den entsprechend Organen,"Herz, 15h","0,0035 Prozent der injizierten Aktivität"
same,Prozent der injizierten Aktivität in den entsprechend Organen,"Hirn, 2′","3,11 Prozent der injizierten Aktivität"
same,Prozent der injizierten Aktivität in den entsprechend Organen,"Hirn, 10′","5,38 Prozent der injizierten Aktivität"
same,Prozent der injizierten Aktivität in den entsprechend Organen,"Hirn, 20′","4,20 Prozent der injizierten Aktivität"
same,Prozent der injizierten Aktivität in den entsprechend Organen,"Hirn, 40′","4,02 Prozent der injizierten Aktivität"
same,Prozent der injizierten Aktivität in den entsprechend Organen,"Hirn, 60′","2,42 Prozent der injizierten Aktivität"
same,Prozent der injizierten Aktivität in den entsprechend Organen,"Hirn, 6h","0,08 Prozent der injizierten Aktivität"
same,Prozent der injizierten Aktivität in den entsprechend Organen,"Hirn, 15h","0,0015 Prozent der injizierten Aktivität"
same,Prozent der injizierten Aktivität in den entsprechend Organen,"Kot + Urin, 2′","0,05 Prozent der injizierten Aktivität"
same,Prozent der injizierten Aktivität in den entsprechend Organen,"Kot + Urin, 10′","6,17 Prozent der injizierten Aktivität"
same,Prozent der injizierten Aktivität in den entsprechend Organen,"Kot + Urin, 20′","19,39 Prozent der injizierten Aktivität"
same,Prozent der injizierten Aktivität in den entsprechend Organen,"Kot + Urin, 40′","48,72 Prozent der injizierten Aktivität"
same,Prozent der injizierten Aktivität in den entsprechend Organen,"Kot + Urin, 60′","51,71 Prozent der injizierten Aktivität"
same,Prozent der injizierten Aktivität in den entsprechend Organen,"Kot + Urin, 6h","48,81 Prozent der injizierten Aktivität"
same,Prozent der injizierten Aktivität in den entsprechend Organen,"Kot + Urin, 15h","42,69 Prozent der injizierten Aktivität"
same,Prozent der injizierten Aktivität in den entsprechend Organen,"Leber, 2′","16,90 Prozent der injizierten Aktivität"
same,Prozent der injizierten Aktivität in den entsprechend Organen,"Leber, 10′","34,37 Prozent der injizierten Aktivität"
same,Prozent der injizierten Aktivität in den entsprechend Organen,"Leber, 20′","17,61 Prozent der injizierten Aktivität"
same,Prozent der injizierten Aktivität in den entsprechend Organen,"Leber, 40′","3,90 Prozent der injizierten Aktivität"
same,Prozent der injizierten Aktivität in den entsprechend Organen,"Leber, 60′","1,29 Prozent der injizierten Aktivität"
same,Prozent der injizierten Aktivität in den entsprechend Organen,"Leber, 6h","0,15 Prozent der injizierten Aktivität"
same,Prozent der injizierten Aktivität in den entsprechend Organen,"Leber, 15h","0,107 Prozent der injizierten Aktivität"
same,Prozent der injizierten Aktivität in den entsprechend Organen,"Lunge, 2′","1,04 Prozent der injizierten Aktivität"
same,Prozent der injizierten Aktivität in den entsprechend Organen,"Lunge, 10′","0,81 Prozent der injizierten Aktivität"
same,Prozent der injizierten Aktivität in den entsprechend Organen,"Magen, 2′","0,81 Prozent der injizierten Aktivität"
same,Prozent der injizierten Aktivität in den entsprechend Organen,"Magen, 10′","1,20 Prozent der injizierten Aktivität"
same,Prozent der injizierten Aktivität in den entsprechend Organen,"Magen, 20′","1,28 Prozent der injizierten Aktivität"
same,Prozent der injizierten Aktivität in den entsprechend Organen,"Magen, 40′","1,37 Prozent der injizierten Aktivität"
same,Prozent der injizierten Aktivität in den entsprechend Organen,"Magen, 60′","1,96 Prozent der injizierten Aktivität"
same,Prozent der injizierten Aktivität in den entsprechend Organen,"Magen, 6h","1,35 Prozent der injizierten Aktivität"
same,Prozent der injizierten Aktivität in den entsprechend Organen,"Magen, 15h","0,346 Prozent der injizierten Aktivität"
same,Prozent der injizierten Aktivität in den entsprechend Organen,"Milz, 2′","0,26 Prozent der injizierten Aktivität"
same,Prozent der injizierten Aktivität in den entsprechend Organen,"Milz, 10′","0,21 Prozent der injizierten Aktivität"
same,Prozent der injizierten Aktivität in den entsprechend Organen,"Milz, 20′","0,11 Prozent der injizierten Aktivität"
same,Prozent der injizierten Aktivität in den entsprechend Organen,"Milz, 40′","0,06 Prozent der injizierten Aktivität"
same,Prozent der injizierten Aktivität in den entsprechend Organen,"Milz, 60′","0,03 Prozent der injizierten Aktivität"
same,Prozent der injizierten Aktivität in den entsprechend Organen,"Milz, 6h","0,008 Prozent der injizierten Aktivität"
same,Prozent der injizierten Aktivität in den entsprechend Organen,"Milz, 15h","0,0035 Prozent der injizierten Aktivität"
same,Prozent der injizierten Aktivität in den entsprechend Organen,"Nieren, 2′","3,15 Prozent der injizierten Aktivität"
same,Prozent der injizierten Aktivität in den entsprechend Organen,"Nieren, 10′","7,48 Prozent der injizierten Aktivität"
same,Prozent der injizierten Aktivität in den entsprechend Organen,"Nieren, 20′","6,25 Prozent der injizierten Aktivität"
same,Prozent der injizierten Aktivität in den entsprechend Organen,"Nieren, 40′","1,53 Prozent der injizierten Aktivität"
same,Prozent der injizierten Aktivität in den entsprechend Organen,"Nieren, 60′","0,79 Prozent der injizierten Aktivität"
same,Prozent der injizierten Aktivität in den entsprechend Organen,"Nieren, 6h","0,04 Prozent der injizierten Aktivität"
same,Prozent der injizierten Aktivität in den entsprechend Organen,"Nieren, 15h","0,009 Prozent der injizierten Aktivität"
same,Prozent der injizierten Aktivität in den entsprechend Organen,"Ovar, 2′","0,09 Prozent der injizierten Aktivität"
same,Prozent der injizierten Aktivität in den entsprechend Organen,"Ovar, 10′","0,06 Prozent der injizierten Aktivität"
same,Prozent der injizierten Aktivität in den entsprechend Organen,"Ovar, 20′","0,05 Prozent der injizierten Aktivität"
same,Prozent der injizierten Aktivität in den entsprechend Organen,"Ovar, 40′","0,02 Prozent der injizierten Aktivität"
same,Prozent der injizierten Aktivität in den entsprechend Organen,"Ovar, 60′","0,02 Prozent der injizierten Aktivität"
same,Prozent der injizierten Aktivität in den entsprechend Organen,"Ovar, 6h","0,003 Prozent der injizierten Aktivität"
same,Prozent der injizierten Aktivität in den entsprechend Organen,"Ovar, 15h","0,0008 Prozent der injizierten Aktivität"
same,Prozent der injizierten Aktivität in den entsprechend Organen,"Restkörper, 2′","63,94 Prozent der injizierten Aktivität"
same,Prozent der injizierten Aktivität in den entsprechend Organen,"Restkörper, 10′","29,92 Prozent der injizierten Aktivität"
same,Prozent der injizierten Aktivität in den entsprechend Organen,"Restkörper, 20′","25,92 Prozent der injizierten Aktivität"
same,Prozent der injizierten Aktivität in den entsprechend Organen,"Restkörper, 40′","11,04 Prozent der injizierten Aktivität"
same,Prozent der injizierten Aktivität in den entsprechend Organen,"Restkörper, 60′","7,09 Prozent der injizierten Aktivität"
same,Prozent der injizierten Aktivität in den entsprechend Organen,"Restkörper, 6h","2,88 Prozent der injizierten Aktivität"
same,Prozent der injizierten Aktivität in den entsprechend Organen,"Restkörper, 15h","1,30 Prozent der injizierten Aktivität"
same,Prozent der injizierten Aktivität in den entsprechend Organen,"Schilddrüse, 2′","0,18 Prozent der injizierten Aktivität"
same,Prozent der injizierten Aktivität in den entsprechend Organen,"Schilddrüse, 10′","0,15 Prozent der injizierten Aktivität"
same,Prozent der injizierten Aktivität in den entsprechend Organen,"Schilddrüse, 20′","0,18 Prozent der injizierten Aktivität"
same,Prozent der injizierten Aktivität in den entsprechend Organen,"Schilddrüse, 40′","0,03 Prozent der injizierten Aktivität"
same,Prozent der injizierten Aktivität in den entsprechend Organen,"Schilddrüse, 60′","0,02 Prozent der injizierten Aktivität"
same,Prozent der injizierten Aktivität in den entsprechend Organen,"Schilddrüse, 6h","0,008 Prozent der injizierten Aktivität"
same,Prozent der injizierten Aktivität in den entsprechend Organen,"Schilddrüse, 15h","0,0015 Prozent der injizierten Aktivität"
same,Prozent der injizierten Aktivität in den entsprechend Organen,"Totalkörper, 2′","99,75 Prozent der injizierten Aktivität"
same,Prozent der injizierten Aktivität in den entsprechend Organen,"Totalkörper, 10′","92,96 Prozent der injizierten Aktivität"
same,Prozent der injizierten Aktivität in den entsprechend Organen,"Totalkörper, 20′","78,87 Prozent der injizierten Aktivität"
same,Prozent der injizierten Aktivität in den entsprechend Organen,"Totalkörper, 40′","47,80 Prozent der injizierten Aktivität"
same,Prozent der injizierten Aktivität in den entsprechend Organen,"Totalkörper, 60′","43,17 Prozent der injizierten Aktivität"
same,Prozent der injizierten Aktivität in den entsprechend Organen,"Totalkörper, 6h","24,16 Prozent der injizierten Aktivität"

# — EP0353754A2, “Radioactively marked benzodiazepin derivates” (F. HOFFMANN-LA ROCHE AG, priority 1988, dated 1990)
